Source: patent US10287275B2, “16-member triamilide derivatives and uses thereof” (VICTOR PHARMA CO., LTD. ZHENJIANG, priority 2015, dated 2019)
In brackets after ≈: the same amount, converted by molar mass.

Experiments:
Type in all cases: cell-based
[1] = test system: Actinobacillus pleuropneumoniae serotype 1; assay: Antibacterial MIC, agar-dilution or broth-dilution microtiter test; details: Strain A: Actinobacillus pleuropneumoniae serotype 1
Protocol: (§1) The MIC's in Table I and Table II were determined by standard agar-dilution assays or broth-dilution microtiter test.

[2] = test system: Actinobacillus pleuropneumoniae serotype 7; assay: as above; details: Strain B: Actinobacillus pleuropneumoniae serotype 7
Protocol: as §1

[3] = test system: Escherichia coli 25922 (QC strain); assay: as above; details: Strain F: Escherichia coli 25922 (QC strain)
Protocol: as §1

Escherichia coli IN-F6-7 = assay: as above; details: INF67; Strain E: Escherichia coli IN-F6-7
Protocol: as §1

[4] = test system: Klebsiella pneumoniae 3699; assay: as above; details: Strain K: Klebsiella pneumoniae 3699
Protocol: as §1

[5] = test system: Klebsiella pneumoniae 3753; assay: as above; details: Strain J: Klebsiella pneumoniae 3753
Protocol: as §1

Pasteurella 8217 = assay: as above; details: Strain C: Pasteurella 8217
Protocol: as §1

Pasteurella 8229 = assay: as above; details: Strain D: Pasteurella 8229
Protocol: as §1

[6] = test system: Staphylococcus aureus 29213 (QC strain); assay: as above; details: Strain H: Staphylococcus aureus 29213 (QC strain)
Protocol: as §1

[7] = test system: Staphylococcus aureus 5-1; assay: as above; details: 51; Strain G: Staphylococcus aureus 5-1
Protocol: as §1

[8] = test system: Streptococcus pneumoniae 2349; assay: as above; details: Strain L: Streptococcus pneumoniae 2349
Protocol: as §1

[9] = test system: Streptococcus pneumoniae 49619 (QC strain); assay: as above; details: Strain M: Streptococcus pneumoniae 49619 (QC strain)
Protocol: as §1

salmonella LD4-8 = assay: as above; details: LD48; Strain I: salmonella LD4-8
Protocol: as §1

M. gallisepticum BG44T = assay: Mycoplasma susceptibility testing (MIC); details: Mycoplasmoides gallisepticum
Protocol: as §1

M. gallisepticum S6 = assay: Mycoplasma susceptibility testing (MIC); details: Mycoplasmoides gallisepticum
Protocol: as §1

M. hyorinis BTS-7 = assay: Mycoplasma susceptibility testing (MIC)
Protocol: as §1

## CC[C@H]1OC(=O)C[C@@H](O)[C@H](C)[C@@H](O[C@@H]2O[C@H](C)[C@@H](O)[C@H](N(C)C)[C@H]2O)[C@@H](CCN2CCCCC2)C[C@@H](C)C(=O)/C=C/C(C)=C/[C@@H]1CN(CC)CC [Compound 4a, (4R,5S,6S,7R,9R,11E,13E,15R,16R)-15-((diethylamino)methyl)-6-(((2R,3R,4S,5S,6R)-4-(dimethylamino)-3,5-dihydroxy-6-methyltetrahydro-2H-pyran-2-yl)oxy)-16-ethyl-4-hydroxy-5,9,13-trimethyl-7-(2-(piperidin-1-yl)ethyl)oxacyclohexadeca-11,13-diene-2,10-dione]
[1]
  MIC: 32 µg/mL (≈ 44.3 µM)
[2]
  MIC: 32 µg/mL (≈ 44.3 µM)
[3]
  MIC: 4 µg/mL (≈ 5.54 µM)
Escherichia coli IN-F6-7
  MIC: 8 µg/mL (≈ 11.1 µM)
[4]
  MIC: > 256 µg/mL
[5]
  MIC: 32 µg/mL (≈ 44.3 µM)
Pasteurella 8217
  MIC: 0.5 µg/mL (≈ 0.693 µM)
Pasteurella 8229
  MIC: 0.5 µg/mL (≈ 0.693 µM)
[6]
  MIC: 4 µg/mL (≈ 5.54 µM)
[7]
  MIC: > 256 µg/mL
[8]
  MIC: 0.5 µg/mL (≈ 0.693 µM)
[9]
  MIC: 8 µg/mL (≈ 11.1 µM)
Salmonella LD4-8
  MIC: 4 µg/mL (≈ 5.54 µM)
M. gallisepticum BG44T
  MIC: < 0.12 µg/mL
M. gallisepticum S6
  MIC: < 0.12 µg/mL
M. hyorinis BTS-7
  MIC: 62.5 µg/mL (≈ 86.6 µM)

## CCCN(CCC)C[C@H]1/C=C(C)/C=C/C(=O)[C@H](C)C[C@H](CCN2CCCCC2)[C@H](O[C@@H]2O[C@H](C)[C@@H](O)[C@H](N(C)C)[C@H]2O)[C@@H](C)[C@H](O)CC(=O)O[C@@H]1CC [Compound 4b, (4R,5S,6S,7R,9R,11E,13E,15R,16R)-6-(((2R,3R,4S,5S,6R)-4-(dimethylamino)-3,5-dihydroxy-6-methyltetrahydro-2H-pyran-2-yl)oxy)-15-((dipropylamino)methyl)-16-ethyl-4-hydroxy-5,9,13-trimethyl-7-(2-(piperidin-1-yl)ethyl)oxacyclohexadeca-11,13-diene-2,10-dione]
[1]
  MIC: 32 µg/mL (≈ 42.7 µM)
[2]
  MIC: 32 µg/mL (≈ 42.7 µM)
[3]
  MIC: 4 µg/mL (≈ 5.33 µM)
Escherichia coli IN-F6-7
  MIC: 8 µg/mL (≈ 10.7 µM)
[4]
  MIC: > 256 µg/mL
[5]
  MIC: 32 µg/mL (≈ 42.7 µM)
Pasteurella 8217
  MIC: 1 µg/mL (≈ 1.33 µM)
Pasteurella 8229
  MIC: 0.25 µg/mL (≈ 0.333 µM)
[6]
  MIC: 16 µg/mL (≈ 21.3 µM)
[7]
  MIC: > 256 µg/mL
[8]
  MIC: 1 µg/mL (≈ 1.33 µM)
[9]
  MIC: 16 µg/mL (≈ 21.3 µM)
Salmonella LD4-8
  MIC: 8 µg/mL (≈ 10.7 µM)
M. gallisepticum BG44T
  MIC: < 0.12 µg/mL
M. gallisepticum S6
  MIC: 0.49 µg/mL (≈ 0.653 µM)
M. hyorinis BTS-7
  MIC: 15.6 µg/mL (≈ 20.8 µM)

## CCCCNC[C@H]1/C=C(C)/C=C/C(=O)[C@H](C)C[C@H](CCN2CCCCC2)[C@H](O[C@@H]2O[C@H](C)[C@@H](O)[C@H](N(C)C)[C@H]2O)[C@@H](C)[C@H](O)CC(=O)O[C@@H]1CC [Compound 4c, (4R,5S,6S,7R,9R,11E,13E,15R,16R)-15-((butylamino)methyl)-6-(((2R,3R,4S,5S,6R)-4-(dimethylamino)-3,5-dihydroxy-6-methyltetrahydro-2H-pyran-2-yl)oxy)-16-ethyl-4-hydroxy-5,9,13-trimethyl-7-(2-(piperidin-1-yl)ethyl)oxacyclohexadeca-11,13-diene-2,10-dione]
[1]
  MIC: 64 µg/mL (≈ 88.6 µM)
[2]
  MIC: 128 µg/mL (≈ 177 µM)
[3]
  MIC: 16 µg/mL (≈ 22.2 µM)
Escherichia coli IN-F6-7
  MIC: 16 µg/mL (≈ 22.2 µM)
[4]
  MIC: > 256 µg/mL
[5]
  MIC: 128 µg/mL (≈ 177 µM)
Pasteurella 8217
  MIC: 4 µg/mL (≈ 5.54 µM)
Pasteurella 8229
  MIC: 4 µg/mL (≈ 5.54 µM)
[6]
  MIC: 64 µg/mL (≈ 88.6 µM)
[7]
  MIC: > 256 µg/mL
[8]
  MIC: 2 µg/mL (≈ 2.77 µM)
[9]
  MIC: 256 µg/mL (≈ 355 µM)
Salmonella LD4-8
  MIC: 32 µg/mL (≈ 44.3 µM)
M. gallisepticum BG44T
  MIC: 7.82 µg/mL (≈ 10.8 µM)
M. gallisepticum S6
  MIC: 15.6 µg/mL (≈ 21.6 µM)
M. hyorinis BTS-7
  MIC: 31.2 µg/mL (≈ 43.3 µM)

## CC[C@H]1OC(=O)C[C@@H](O)[C@H](C)[C@@H](O[C@@H]2O[C@H](C)[C@@H](O)[C@H](N(C)C)[C@H]2O)[C@@H](CCN2CCCCC2)C[C@@H](C)C(=O)/C=C/C(C)=C/[C@@H]1CN(C)Cc1ccccc1 [Compound 4f, (4R,5S,6S,7R,9R,11E,13E,15R,16R)-15-((benzyl(methyl)amino)methyl)-6-(((2R,3R,4S,5S,6R)-4-(dimethylamino)-3,5-dihydroxy-6-methyltetrahydro-2H-pyran-2-yl)oxy)-16-ethyl-4-hydroxy-5,9,13-trimethyl-7-(2-(piperidin-1-yl)ethyl)oxacyclohexadeca-11,13-diene-2,10-dione]
[1]
  MIC: 16 µg/mL (≈ 20.8 µM)
[2]
  MIC: 64 µg/mL (≈ 83.1 µM)
[3]
  MIC: 4 µg/mL (≈ 5.19 µM)
Escherichia coli IN-F6-7
  MIC: 4 µg/mL (≈ 5.19 µM)
[4]
  MIC: > 256 µg/mL
[5]
  MIC: 32 µg/mL (≈ 41.6 µM)
Pasteurella 8217
  MIC: < 0.12 µg/mL
Pasteurella 8229
  MIC: 0.12 µg/mL (≈ 0.156 µM)
[6]
  MIC: 2 µg/mL (≈ 2.6 µM)
[7]
  MIC: 128 µg/mL (≈ 166 µM)
[8]
  MIC: < 0.12 µg/mL
[9]
  MIC: 0.5 µg/mL (≈ 0.649 µM)
Salmonella LD4-8
  MIC: 4 µg/mL (≈ 5.19 µM)
M. gallisepticum BG44T
  MIC: < 0.12 µg/mL
M. gallisepticum S6
  MIC: 0.24 µg/mL (≈ 0.312 µM)
M. hyorinis BTS-7
  MIC: 0.98 µg/mL (≈ 1.27 µM)

## CC[C@H]1OC(=O)C[C@@H](O)[C@H](C)[C@@H](O[C@@H]2O[C@H](C)[C@@H](O)[C@H](N(C)C)[C@H]2O)[C@@H](CCN2CCCCC2)C[C@@H](C)C(=O)/C=C/C(C)=C/[C@@H]1CN(CCO)CCO [Compound 4g, (4R,5S,6S,7R,9R,11E,13E,15R,16R)-15-((bis(2-hydroxyethyl)amino)methyl)-6-(((2R,3R,4S,5S,6R)-4-(dimethylamino)-3,5-dihydroxy-6-methyltetrahydro-2H-pyran-2-yl)oxy)-16-ethyl-4-hydroxy-5,9,13-trimethyl-7-(2-(piperidin-1-yl)ethyl)oxacyclohexadeca-11,13-diene-2,10-dione]
[1]
  MIC: 256 µg/mL (≈ 340 µM)
[2]
  MIC: 256 µg/mL (≈ 340 µM)
[3]
  MIC: 256 µg/mL (≈ 340 µM)
Escherichia coli IN-F6-7
  MIC: 256 µg/mL (≈ 340 µM)
[4]
  MIC: > 256 µg/mL
[5]
  MIC: > 256 µg/mL
Pasteurella 8217
  MIC: < 0.12 µg/mL
Pasteurella 8229
  MIC: 32 µg/mL (≈ 42.4 µM)
[6]
  MIC: 128 µg/mL (≈ 170 µM)
[7]
  MIC: > 256 µg/mL
[8]
  MIC: 32 µg/mL (≈ 42.4 µM)
[9]
  MIC: > 256 µg/mL
Salmonella LD4-8
  MIC: 128 µg/mL (≈ 170 µM)

## CC[C@H]1OC(=O)C[C@@H](O)[C@H](C)[C@@H](O[C@@H]2O[C@H](C)[C@@H](O)[C@H](N(C)C)[C@H]2O)[C@@H](CCN2CCCCC2)C[C@@H](C)C(=O)/C=C/C(C)=C/[C@@H]1CNC1CCCCC1 [Compound 4h, (4R,5S,6S,7R,9R,11E,13E,15R,16R)-15-((cyclohexylamino)methyl)-6-(((2R,3R,4S,5S,6R)-4-(dimethylamino)-3,5-dihydroxy-6-methyltetrahydro-2H-pyran-2-yl)oxy)-16-ethyl-4-hydroxy-5,9,13-trimethyl-7-(2-(piperidin-1-yl)ethyl)oxacyclohexadeca-11,13-diene-2,10-dione]
[1]
  MIC: 64 µg/mL (≈ 85.6 µM)
[2]
  MIC: 64 µg/mL (≈ 85.6 µM)
[3]
  MIC: 16 µg/mL (≈ 21.4 µM)
Escherichia coli IN-F6-7
  MIC: 16 µg/mL (≈ 21.4 µM)
[4]
  MIC: > 256 µg/mL
[5]
  MIC: 128 µg/mL (≈ 171 µM)
Pasteurella 8217
  MIC: 16 µg/mL (≈ 21.4 µM)
Pasteurella 8229
  MIC: 2 µg/mL (≈ 2.67 µM)
[6]
  MIC: 64 µg/mL (≈ 85.6 µM)
[7]
  MIC: 256 µg/mL (≈ 342 µM)
[8]
  MIC: 2 µg/mL (≈ 2.67 µM)
[9]
  MIC: 32 µg/mL (≈ 42.8 µM)
Salmonella LD4-8
  MIC: 32 µg/mL (≈ 42.8 µM)

## CC[C@H]1OC(=O)C[C@@H](O)[C@H](C)[C@@H](O[C@@H]2O[C@H](C)[C@@H](O)[C@H](N(C)C)[C@H]2O)[C@@H](CCN2C[C@H](C)C[C@H](C)C2)C[C@@H](C)C(=O)/C=C/C(C)=C/[C@@H]1CO[C@@H]1O[C@H](C)[C@@H](O)[C@@H](OC)[C@H]1OC [Tilmicosin, reference compound]
[1]
  MIC: 32 µg/mL (≈ 36.8 µM)
[2]
  MIC: 32 µg/mL (≈ 36.8 µM)
[3]
  MIC: 8 µg/mL (≈ 9.2 µM)
Escherichia coli IN-F6-7
  MIC: 16 µg/mL (≈ 18.4 µM)
[4]
  MIC: > 256 µg/mL
[5]
  MIC: 64 µg/mL (≈ 73.6 µM)
Pasteurella 8217
  MIC: 8 µg/mL (≈ 9.2 µM)
Pasteurella 8229
  MIC: 0.5 µg/mL (≈ 0.575 µM)
[6]
  MIC: 0.5 µg/mL (≈ 0.575 µM)
[7]
  MIC: > 256 µg/mL
[8]
  MIC: 0.5 µg/mL (≈ 0.575 µM)
[9]
  MIC: 8 µg/mL (≈ 9.2 µM)
Salmonella LD4-8
  MIC: 32 µg/mL (≈ 36.8 µM)
M. gallisepticum BG44T
  MIC: < 0.12 µg/mL
M. gallisepticum S6
  MIC: < 0.12 µg/mL
M. hyorinis BTS-7
  MIC: 3.91 µg/mL (≈ 4.5 µM)
